Assay results as given in US9073855B2, “BCL-2 selective apoptosis-inducing agents for the treatment of cancer and immune diseases” (AbbVie Inc., priority 2008, dated 2015).

Legend:
FL5.12/Bcl-2 cells = experiment: FL5.12/Bcl-2 cell viability assay under IL-3 withdrawal (CellTitre Glo); assay type: cell-based, murine; conditions: Mus musculus, IL-3 withdrawn 48 hrs, then 24 hrs with compound
Method in brief: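 Viability measured by CellTitre Glo after FL5.12/Bcl-2 murine cells, starved of IL-3 for 48 hrs, were treated with compounds for another 24 hrs. Killing reflects inhibition of Bcl-2 sequestration of Bim and Puma.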

GST-Bcl-XL = GST-Bcl-XL (Homo sapiens, UniProt Q07817); experiment: TR-FRET binding assay, GST-Bcl-XL with F-Bak peptide probe; conditions: TR-FRET Binding Affinity, GST-Bcl-XL, F-Bak peptide probe
Method in brief: (§1)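 Competitive TR-FRET: GST-fusion protein, fluorescent Bak peptide probe and Tb-labelled anti-GST antibody incubated with compound dilution series (starting 50 μM as 2× stock, 10% DMSO) for 3 h at RT. Excitation 340/35 nm; Ki derived via Wang's exact competitive-binding equation.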

GST-Bcl-2 = GST-Bcl-2 (Homo sapiens, UniProt P10415); experiment: TR-FRET binding assay, GST-Bcl-2 with F-Bak peptide probe; conditions: TR-FRET Binding Affinity, GST-Bcl-2, F-Bak peptide probe
Method in brief: as §1

Sequence of GST-Bcl-XL (Q07817 whole entry, the tested form may be a part): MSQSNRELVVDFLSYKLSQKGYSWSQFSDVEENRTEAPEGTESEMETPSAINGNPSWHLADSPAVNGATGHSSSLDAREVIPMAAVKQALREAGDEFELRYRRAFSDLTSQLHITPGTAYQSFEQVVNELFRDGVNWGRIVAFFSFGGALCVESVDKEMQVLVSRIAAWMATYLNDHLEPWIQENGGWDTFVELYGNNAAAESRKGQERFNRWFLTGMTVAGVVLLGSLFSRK
Sequence of GST-Bcl-2 (P10415 whole entry): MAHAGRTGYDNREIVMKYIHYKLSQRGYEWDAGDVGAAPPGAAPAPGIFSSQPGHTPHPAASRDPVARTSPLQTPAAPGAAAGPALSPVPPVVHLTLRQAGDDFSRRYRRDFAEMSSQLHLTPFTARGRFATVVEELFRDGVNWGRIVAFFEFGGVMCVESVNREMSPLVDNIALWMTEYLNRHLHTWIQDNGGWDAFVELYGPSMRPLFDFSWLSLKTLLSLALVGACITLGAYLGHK

| SMILES | EC50 (FL5.12/Bcl-2 cells) | Ki (GST-Bcl-XL) | Ki (GST-Bcl-2) |
| --- | --- | --- | --- |
| COCCOCCNc1ccc(S(=O)(=O)NC(=O)c2ccc(N3CCN(CC4=C(c5ccc(Cl)cc5)CC(C)(C)CC4)CC3)cc2Oc2cccc3[nH]ccc23)cc1[N+](=O)[O-] [Example 293, 4-(4-{[2-(4-chlorophenyl)-4,4-dimethylcyclohex-1-en-1-yl]methyl}piperazin-1-yl)-2-(1H-indol-4-yloxy)-N-[(4-{[2-(2-methoxyethoxy)ethyl]amino}-3-nitrophenyl)sulfonyl]benzamide] | 68.1 nM | 260 nM | 0.516 nM |
| CN1CCC(O)(CNc2ccc(S(=O)(=O)NC(=O)c3ccc(N4CCN(CC5=C(c6ccc(Cl)cc6)CC(C)(C)CC5)CC4)cc3Oc3cccc4[nH]ccc34)cc2[N+](=O)[O-])CC1 [Example 186, 4-(4-{[2-(4-chlorophenyl)-4,4-dimethylcyclohex-1-en-1-yl]methyl}piperazin-1-yl)-N-[(4-{[(4-hydroxy-1-methylpiperidin-4-yl)methyl]amino}-3-nitrophenyl)sulfonyl]-2-(1H-indol-4-yloxy)benzamide] | 20.4 nM | 11.2 nM | 0.01 nM |
| CC1(C)CCC(CN2CCN(c3ccc(C(=O)NS(=O)(=O)c4ccc(OCC5(C)COC5)c([N+](=O)[O-])c4)c(Oc4ccc5[nH]ccc5c4)c3)CC2)=C(c2ccc(Cl)cc2)C1 [Example 286, 4-(4-{[2-(4-chlorophenyl)-4,4-dimethylcyclohex-1-en-1-yl]methyl}piperazin-1-yl)-2-(1H-indol-5-yloxy)-N-({4-[(3-methyloxetan-3-yl)methoxy]-3-nitrophenyl}sulfonyl)benzamide] | 279 nM | > 660 nM | 0.567 nM |
| CC1(C)CCC(CN2CCN(c3ccc(C(=O)NS(=O)(=O)c4ccc(NC5CCN(CCO)CC5)c([N+](=O)[O-])c4)c(Oc4cccc5[nH]ccc45)c3)CC2)=C(c2ccc(Cl)cc2)C1 [Example 191, 4-(4-{[2-(4-chlorophenyl)-4,4-dimethylcyclohex-1-en-1-yl]methyl}piperazin-1-yl)-N-[(4-{[1-(2-hydroxyethyl)piperidin-4-yl]amino}-3-nitrophenyl)sulfonyl]-2-(1H-indol-4-yloxy)benzamide] | 11.7 nM | 9.16 nM | 0.073 nM |
| CC1(C)CCC(CN2CCN(c3ccc(C(=O)NS(=O)(=O)c4ccc(NC5CCN(CCCO)CC5)c([N+](=O)[O-])c4)c(Oc4cccc5[nH]ccc45)c3)CC2)=C(c2ccc(Cl)cc2)C1 [Example 195, 4-(4-{[2-(4-chlorophenyl)-4,4-dimethylcyclohex-1-en-1-yl]methyl}piperazin-1-yl)-N-[(4-{[1-(3-hydroxypropyl)piperidin-4-yl]amino}-3-nitrophenyl)sulfonyl]-2-(1H-indol-4-yloxy)benzamide] | 11.2 nM | 6.71 nM | 0.039 nM |
| CC1(C)CCC(CN2CCN(c3ccc(C(=O)NS(=O)(=O)c4ccc(NC5CCN(C6CCOCC6)CC5)c([N+](=O)[O-])c4)c(Oc4ccc5[nH]ccc5c4)c3F)CC2)=C(c2ccc(Cl)cc2)C1 [Example 185, 4-(4-{[2-(4-chlorophenyl)-4,4-dimethylcyclohex-1-en-1-yl]methyl}piperazin-1-yl)-3-fluoro-2-(1H-indol-5-yloxy)-N-({3-nitro-4-[(1-tetrahydro-2H-pyran-4-ylpiperidin-4-yl)amino]phenyl}sulfonyl)benzamide] | 63.4 nM | 82.6 nM | 0.228 nM |
| CN1CCC(Nc2ccc(S(=O)(=O)NC(=O)c3ccc(N4CCN(CC5=C(c6ccc(Cl)cc6)CC(C)(C)CC5)C(CO)C4)cc3Oc3ccc4[nH]ccc4c3)cc2[N+](=O)[O-])CC1 (stereo not drawn) [Example 218, 4-[4-{[2-(4-chlorophenyl)-4,4-dimethylcyclohex-1-en-1-yl]methyl}-3-(hydroxymethyl)piperazin-1-yl]-2-(1H-indol-5-yloxy)-N-({4-[(1-methylpiperidin-4-yl)amino]-3-nitrophenyl}sulfonyl)benzamide] | 33 nM | 96.9 nM | 0.131 nM |
| O=C(NS(=O)(=O)c1ccc(NCC2CCOCC2)c([N+](=O)[O-])c1)c1ccc(N2CCN(CC3=C(c4ccc(Cl)cc4)CCC(O)C3)CC2)cc1Oc1ccc2[nH]ccc2c1 (stereo not drawn) [Example 248, 4-(4-{[2-(4-chlorophenyl)-5-hydroxycyclohex-1-en-1-yl]methyl}piperazin-1-yl)-2-(1H-indol-5-yloxy)-N-({3-nitro-4-[(tetrahydro-2H-pyran-4-ylmethyl)amino]phenyl}sulfonyl)benzamide] | 49.8 nM | 155 nM | 0.013 nM |
| CC1(C)CCC(CN2CCN(c3ccc(C(=O)NS(=O)(=O)c4ccc(NCC5(CO)CCOCC5)c([N+](=O)[O-])c4)c(Oc4ccc5[nH]ccc5c4)c3)CC2)=C(c2ccc(Cl)cc2)C1 [Example 232, 4-(4-{[2-(4-chlorophenyl)-4,4-dimethylcyclohex-1-en-1-yl]methyl}piperazin-1-yl)-N-{[4-({[4-(hydroxymethyl)tetrahydro-2H-pyran-4-yl]methyl}amino)-3-nitrophenyl]sulfonyl}-2-(1H-indol-5-yloxy)benzamide] | 12.3 nM | 197 nM | 0.46 nM |
| CC1(C)CCC(CN2CCN(c3ccc(C(=O)NS(=O)(=O)c4ccc(NC5CCN(c6nccs6)CC5)c([N+](=O)[O-])c4)c(Oc4ccc5[nH]ccc5c4)c3)CC2)=C(c2ccc(Cl)cc2)C1 [Example 212, 4-(4-{[2-(4-chlorophenyl)-4,4-dimethylcyclohex-1-en-1-yl]methyl}piperazin-1-yl)-2-(1H-indol-5-yloxy)-N-[(3-nitro-4-{[1-(1,3-thiazol-2-yl)piperidin-4-yl]amino}phenyl)sulfonyl]benzamide] | > 500 nM | > 660 nM | 0.737 nM |
| CC1(C)CCC(CN2CCN(c3ccc(C(=O)NS(=O)(=O)c4ccc(NCC(F)(F)F)c([N+](=O)[O-])c4)c(Oc4cccc5[nH]ccc45)c3)CC2)=C(c2ccc(Cl)cc2)C1 [Example 343, 4-(4-{[2-(4-chlorophenyl)-4,4-dimethylcyclohex-1-en-1-yl]methyl}piperazin-1-yl)-2-(1H-indol-4-yloxy)-N-({3-nitro-4-[(2,2,2-trifluoroethyl)amino]phenyl}sulfonyl)benzamide] | 54.9 nM | > 660 nM | 0.576 nM |
| CC1(C)CCC(CN2CCN(c3ccc(C(=O)NS(=O)(=O)c4ccc(NCCCN5CCNC(=O)C5)c([N+](=O)[O-])c4)c(Oc4cccc5[nH]ccc45)c3)CC2)=C(c2ccc(Cl)cc2)C1 [Example 223, 4-(4-{[2-(4-chlorophenyl)-4,4-dimethylcyclohex-1-en-1-yl]methyl}piperazin-1-yl)-2-(1H-indol-4-yloxy)-N-[(3-nitro-4-{[3-(3-oxopiperazin-1-yl)propyl]amino}phenyl)sulfonyl]benzamide] | 37.1 nM | 97.3 nM | 0.169 nM |
| COCCOCCNc1ccc(S(=O)(=O)NC(=O)c2ccc(N3CCN(CC4=C(c5ccc(Cl)cc5)CC(C)(C)CC4)CC3)cc2Oc2ccc3[nH]ccc3c2)cc1[N+](=O)[O-] [Example 298, 4-(4-{[2-(4-chlorophenyl)-4,4-dimethylcyclohex-1-en-1-yl]methyl}piperazin-1-yl)-2-(1H-indol-5-yloxy)-N-[(4-{[2-(2-methoxyethoxy)ethyl]amino}-3-nitrophenyl)sulfonyl]benzamide] | 19.5 nM | 446 nM | 0.315 nM |
| CN1CCN(Nc2ccc(S(=O)(=O)NC(=O)c3ccc(N4CCN(CC5=C(c6ccc(Cl)cc6)CC(C)(C)CC5)CC4)cc3Oc3cccc4[nH]ccc34)cc2S(=O)(=O)C(F)(F)F)CC1 [Example 215, 4-(4-{[2-(4-chlorophenyl)-4,4-dimethylcyclohex-1-en-1-yl]methyl}piperazin-1-yl)-2-(1H-indol-4-yloxy)-N-({4-[(4-methylpiperazin-1-yl)amino]-3-[(trifluoromethyl)sulfonyl]phenyl}sulfonyl)benzamide] | 116 nM | 60.8 nM | 0.503 nM |
| CC1(C)CCC(CN2CCN(c3ccc(C(=O)NS(=O)(=O)c4ccc(NCCCS(C)(=O)=O)c([N+](=O)[O-])c4)c(Oc4cccc5[nH]ccc45)c3)CC2)=C(c2ccc(Cl)cc2)C1 [Example 294, 4-(4-{[2-(4-chlorophenyl)-4,4-dimethylcyclohex-1-en-1-yl]methyl}piperazin-1-yl)-2-(1H-indol-4-yloxy)-N-[(4-{[3-(methylsulfonyl)propyl]amino}-3-nitrophenyl)sulfonyl]benzamide] | 59.8 nM | 65.1 nM | 0.258 nM |
| CC1(C)CCC(CN2CCN(c3ccc(C(=O)NS(=O)(=O)c4ccc(NC5CCN(C6CCOCC6)CC5)c([N+](=O)[O-])c4)c(Oc4ccc5[nH]ccc5c4)c3)CC2CO)=C(c2ccc(Cl)cc2)C1 (stereo not drawn) [Example 219, 4-[4-{[2-(4-chlorophenyl)-4,4-dimethylcyclohex-1-en-1-yl]methyl}-3-(hydroxymethyl)piperazin-1-yl]-2-(1H-indol-5-yloxy)-N-({3-nitro-4-[(1-tetrahydro-2H-pyran-4-ylpiperidin-4-yl)amino]phenyl}sulfonyl)benzamide] | 23 nM | 29.9 nM | 0.236 nM |
| CC1(C)CCC(CN2CCN(c3ccc(C(=O)NS(=O)(=O)c4ccc(NCC5COCCO5)c([N+](=O)[O-])c4)c(Oc4ccc5[nH]ccc5c4)c3)CC2)=C(c2ccc(Cl)cc2)C1 (stereo not drawn) [Example 336, 4-(4-{[2-(4-chlorophenyl)-4,4-dimethylcyclohex-1-en-1-yl]methyl}piperazin-1-yl)-N-({4-[(1,4-dioxan-2-ylmethyl)amino]-3-nitrophenyl}sulfonyl)-2-(1H-indol-5-yloxy)benzamide] | 7.49 nM | 242 nM | 0.105 nM |
